From patent US5276049A, “Cyclic urea derivatives, pharmaceutical compositions containing these compounds and methods of using the same” (Dr. Karl Thomae GmbH, priority 1991, dated 1994)
Where a name gives a salt, the structure may show the parent alone.

Key:
[1] = system: Human Thrombocytes; assay: Fibrinogen Binding to Human Thrombocytes (I125-fibrinogen, gel-filtered platelets); details: inhibition of I125-fibrinogen binding to gel-filtered human platelets, ADP, 20 minutes, ambient temperature; read-out: Fibrinogen Binding test IC50
Protocol: 1. Fibrinogen Binding to Human Thrombocytes Blood obtained by puncture of an antecubital vein was anticoagulated with trisodium citrate (final concentration: 13 mM) and centrifuged for 10 minutes at 170 *g. The supernatant platelet-rich plasma was placed on a Sepharose 2B column (Pharmacia) and eluted with a solution of 90 mM common salt, 14 mM trisodium citrate, 5 mM glucose and 50 mM tris(hydroxymethyl)aminomethane, adjusted to pH 7.4. The gel-filtered platelets (GFP) appearing in front of the plasma proteins were used for the binding tests. 50 μl of a 60 mM calcium chloride solution, 50 μl of a 0.6 mM adenosine diphosphate solution, 100 μl of substance solution or solvent and 50 μl of fibrinogen solution (containing 3 μg I125-fibrinogen) were added to 750 μl of GFP and incubated for 20 minutes at ambient temperature. The non-specific binding was measured in the presence of 3 mg/ml of cold fibrinogen. 900 μl of the incubate were carefully pipetted onto 250 μl of silicon oil (AP 38: AR 20, 1:2 v/v, Wacker Chemie) in Eppendorf vessels and centrifuged for 2 minutes at 10,000 *g. The aqueous supernatant and some of the oil were removed, the tip of the vessel with the platelet pellet was cut off and the quantity of bound fibrinogen was measured in a gamma-counter. The concentration of substance which inhibited fibrinogen binding by 50% was calculated from a series of concentrations and given as the IC50.

[2] = system: thrombocyte aggregation in platelet-rich plasma; assay: Antithrombotic effect: collagen-induced thrombocyte aggregation in platelet-rich plasma (Born and Cross); assay type: cell-based; details: human platelet-rich plasma, 10 minutes preincubation at 37° C., read-out: Inhibition of platelet aggregation EC50
Protocol: 2. Antithrombotic Effect Method: The thrombocyte aggregation was measured in platelet-rich plasma from healthy test subjects using the Born and Cross method (J. Physiol. 170: 397 (1964)). In order to inhibit coaggulation the blood was mixed with 3.14% sodium citrate in a ratio by volume of 1:10. Collagen-induced aggregation: The decrease in the optical density of the platelet suspension was measured photometrically and recorded after the addition of the aggregation-initiating substance. The speed of aggregation was concluded from the angle of inclination of the density curve. The point on the curve at which there was maximum transmittance was used to calculate the optical density. The quantity of collagen used was as little as possible but sufficient to give an irreversible reaction curve. Standard commercial collagen produced by Hormonchemie of Munich was used. Before the addition of collagen the plasma was incubated with the substance for 10 minutes at 37° C. From the measurements obtained, an EC50 was determined graphically, relating to a 50% change in the optical density in terms of inhibiting aggregation.

| IC50 [1] | EC50 [2] | SMILES |
| --- | --- | --- |
| 3.6 µM | 13 µM | CC(C)(CC(=O)O)c1ccc(N2CCN(c3ccc(C(=N)N)cc3)C2=O)cc1 [1(51), 1-(4-amidino-phenyl)-3-[4-(3-carboxy-2-methyl-2-propyl)-phenyl]-imidazolidin-2-one] |
| 59 µM | 49 µM | COC(=O)CCCCn1c(=O)n(-c2ccc(C(=N)N)cc2)c2ncccc21 [2(116), 3-(4-amidino-phenyl)-1-(4-methoxycarbonyl-butyl)-3H-imidazo[4,5-b]pyridin-2-one dihydrochloride] |
| 0.75 µM | 0.6 µM | COC(=O)COc1ccc(N2CCN(c3ccc(CN)cc3)C2=O)cc1 [Example 8, 1-(4-Aminomethyl-phenyl)-3-(4-methoxycarbonylmethyloxy-phenyl)-imidazolidin-2-one hydrochloride] |
| 1.5 µM | 1.9 µM | CN1C(=O)N(c2ccc(CCC(=O)O)cc2)CC1c1ccc(C(=N)N)cc1 (stereo not drawn) [4(16), 4-(4-amidino-phenyl)-1-[4-(2-carboxy-ethyl)-phenyl]-3-methyl-imidazolidin-2-one hydrochloride] |
| 0.24 µM | 0.16 µM | COC(=O)CCc1ccc(N2CCN(c3ccc(C(=N)N)cc3)C2=O)cc1 [2(6), 1-(4-amidino-phenyl)-3-[4-(2-methoxycarbonyl-ethyl)-phenyl]-imidazolidin-2-one hydrochloride] |
| 3 µM | 5.9 µM | COC(=O)CCc1ccc(N2CCN(c3ccc(CN)cc3C)C2=O)cc1 [8(5), 1-(4-aminomethyl-2-methyl-phenyl)-3-[4-(2-methoxycarbonyl-ethyl)-phenyl]-imidazolidin-2-one] |
| 2.6 µM | 9.5 µM | COC(=O)CCN1CC(c2ccc(-c3ccc(C(=N)N)cc3)cc2)N(c2ccccc2)C1=O (stereo not drawn) [4(9), 4-(4'-amidino-4-biphenylyl)-1-(2-methoxycarbonyl-ethyl)-3-phenyl-imidazolidin-2-one hydrochloride] |
| 0.096 µM | 0.32 µM | N=C(N)c1ccc(-c2ccc(N3CC(=O)N(CCC(=O)O)C3=O)cc2)cc1 [1(2), 1-(4'-amidino-4-biphenylyl)-3-(2-carboxy-ethyl)-imidazolidin-2,4-dione] |
| 0.031 µM | 0.62 µM | N=C(N)c1ccc(-c2ccc(N3CCN(CCC(=O)O)S3(=O)=O)cc2)cc1 [1(21), 2-(4'-amidino-4-biphenylyl)-5-(2-carboxy-ethyl)-3,4-dihydro-2H,5H-1,2,5-thiadiazol-1,1-dioxide] |
| 2.7 µM | 6.6 µM | COC(=O)CCn1cc(-c2ccc(-c3ccc(C(=N)N)cc3)cc2)n(-c2ccccc2)c1=O [2(106), 4-(4'-amidino-4-biphenylyl)-1-(2-methoxycarbonyl-ethyl)-3-phenyl-3H-imidazol-2-one hydrochloride] |
| 2.5 µM | 0.49 µM | COC(=O)CCN1CCN(c2ccc(-c3ccc(C(=N)N)cc3)nn2)C1=O [2(27), 1-[6-(4-amidino-phenyl)-3-pyridazinyl]-3-(2-methoxycarbonyl-ethyl)-imidazolidin-2-one hydrochloride] |
| 0.041 µM | 0.2 µM | CN1C(=O)N(CCC(=O)O)CC1c1ccc(-c2ccc(C(=N)N)cc2)cc1 (stereo not drawn) [4(14), 4-(4'-amidino-4-biphenylyl)-1-(2-carboxy-ethyl)-3-methyl-imidazolidin-2-one hydrochloride] |
| 0.53 µM | 0.08 µM | COC(=O)CCc1ccc(-n2c(C)cn(-c3ccc(C(=N)N)cc3)c2=O)cc1 [2(115), 1-(4-amidino-phenyl)-3-[4-(2-methoxycarbonyl-ethyl)-phenyl]-4-methyl-3H-imidazol-2-one hydrochloride] |
| 4.9 µM | 8 µM | N=C(N)c1ccc(N2CCN(CCCCC(=O)O)C2=O)cc1 [1(77), -(4-amidino-phenyl)-3-(4-carboxy-butyl)-imidazolidin-2-one] |
| > 100 µM | 20 µM | COC(=O)CCc1ccc(N2CCN(c3ccc(C(=N)NC(=O)OC)cc3)C2=O)cc1 [5(1), 1-(4-methoxycarbonylamidino-phenyl)-3-[4-(2-methoxycarbonyl-ethyl)-phenyl]-imidazolidin-2-one] |
| 0.42 µM | 0.12 µM | COC(=O)C[S+]([O-])c1ccc(N2CCN(c3ccc(C(=N)N)cc3)C2=O)cc1 (stereo not drawn) [18(5), 1-(4-amidino-phenyl)-3-(4-methoxycarbonylmethyl-sulphinyl-phenyl)-imidazolidin-2-one] |
| 5.7 µM | 0.69 µM | COC(=O)CCN1CCN(c2ccc(-c3ccc(C(=N)N)cc3)cc2)S1(=O)=O [2(20), 2-(4'-amidino-4-biphenylyl)-5-(2-methoxycarbonyl-ethyl)-3,4-dihydro-2H,5H-1,2,5-thiadiazole-1,1-dioxide hydrochloride] |
| 18 µM | 3.1 µM | CCOC(=O)CCn1ccn(-c2ccc(-c3ccc(C(=N)N)cc3)cc2)c1=O [2(3), 1-(4'-amidino-4-biphenylyl)-3-(2-ethoxycarbonyl-ethyl)-3H-imidazol-2-one h ydrochloride] |
| 5.6 µM | 18 µM | COC(=O)C(Cc1ccc(-n2ccn(-c3ccc(C(=N)N)cc3)c2=O)cc1)N(Cc1ccccc1)Cc1ccccc1 (stereo not drawn) [2(127), 1-(4-amidino-phenyl)-3-[4-(2-dibenzylamino-2-methoxycarbonyl-ethyl)-phenyl]-3H-imidazol-2-one hydrochloride] |
| 32 µM | > 100 µM | COC(=O)CC(C)(C)c1ccc(N2CCN(c3ccc(C(=N)N)cc3)C2=O)cc1 [2(47), 1-(4-amidino-phenyl)-3-[4-(3-methoxycarbonyl-2-methyl-2-propyl)-phenyl]-imidazolidin-2-one hydrochloride] |
| 0.032 µM | 0.31 µM | N=C(N)c1ccc(-c2ccc(C3CN(CCC(=O)O)C(=O)N3c3ccccc3)cc2)cc1 (stereo not drawn) [4(13), 4-(4'-amidino-4-biphenylyl)-1-(2-carboxy-ethyl)-3-phenyl-imidazolidin-2-one hydrochloride] |
| 0.013 µM | 0.04 µM | N=C(N)c1ccc(N2CC(=O)N(c3ccc(CCC(=O)O)cc3)C2=O)cc1 [1(62), 1-(4-amidino-phenyl)-3-[4-(2-carboxy-ethyl)-phenyl]-imidazolidin-2,4-dione] |
| 8 µM | 31 µM | COC(=O)CCc1ccc(-n2ccn(-c3ccc(C(=N)NC(=O)OC)cc3)c2=O)cc1 [5(8), 1-(4-methoxycarbonylamidino-phenyl)-3-[4-(2-methoxycarbonyl-ethyl)-phenyl]-3H-imidazol-2-one] |
| 25 µM | 0.63 µM | CCOC(=O)CCN1C(=O)CN(c2ccc(-c3ccc(C(=N)N)cc3)cc2)C1=O [2(2), 1-(4'-amidino-4-biphenylyl)-3-(2-ethoxycarbonyl-ethyl)-imidazolidin-2,4-dione hydrochloride] |
| 0.37 µM | 9.9 µM | N=C(N)c1ccc(-n2ccn(-c3ccc(CC(C(=O)O)N(Cc4ccccc4)Cc4ccccc4)cc3)c2=O)cc1 (stereo not drawn) [1(150), 1-(4-amidino-phenyl)-3-[4-(2-carboxy-2-dibenzylamino-ethyl)-phenyl]-3H-imidazol-2-one] |
| 0.23 µM | 5.4 µM | N=C(N)c1ccc(-c2ccc(-c3cn(CCC(=O)O)c(=O)[nH]3)cc2)cc1 [1(117), 4-(4'-amidino-4-biphenylyl)-1-(2-carboxy-ethyl)-3H-imidazol-2-one hydrochloride] |
| 0.28 µM | 0.04 µM | CCc1nn(-c2ccc(C(=N)N)cc2)c(=O)n1-c1ccc(CCC(=O)OC)cc1 [2(119), 2-(4-amidino-phenyl)-5-ethyl-4-[4-(2-methoxycarbonyl-ethyl)-phenyl]-4H-1,2,4-triazol-3-one hydrochloride] |
| 22 µM | > 100 µM | COC(=O)c1ccc(CCN2CCN(c3ccc(C(=N)N)cc3)C2=O)cc1 [2(48), 1-(4-amidino-phenyl)-3-[2-(4-methoxycarbonyl-phenyl)-ethyl]-imidazolidin-2-one] |
| 0.052 µM | 0.39 µM | N=C(N)c1ccc(-c2ccc(N3CCN(CCC(=O)O)C3=O)nn2)cc1 [1(28), 1-[6-(4-amidino-phenyl)-3-pyridazinyl]-3-(2-carboxy-ethyl)-imidazolidin-2-one] |
| 15 µM | 42 µM | CCOC(=O)CCN1CCCN(c2ccc(-c3ccc(C(=N)N)cc3)cc2)C1=O [2(4), 1-(4'-amidino-4-biphenylyl)-3-(2-ethoxycarbonyl-ethyl)-3,4,5,6-tetrahydro-1H-pyrimidin-2-one hydrochloride] |
